# Literature values in patent US12551462B2, “Anti-aging composition with rutin, apigenin, epigallocatechin gallate, lipoic acid and the NAD precursor, niacinamide” (NUCHIDO LIMITED, priority 2018, dated 2026).
# System: NAD concentration
# Conditions: Trammell et al. 2016
smiles,measurement,value
"NC(=O)c1ccc[n+]([C@@H]2O[C@H](CO)[C@@H](O)[C@H]2O)c1 [Niagen, nicotinamide riboside]",Enhancement of NAD (as % baseline),270%
